Data set [1] in a line: Distribution coefficient, logD of compound at pH 7.4. It counts as physicochemical. Conditions: octanol/water.
Data set [2] deals with T1, ATPase family AAA domain-containing protein 2 (Homo sapiens, UniProt Q6PL18).
T1 sequence (Q6PL18 whole entry): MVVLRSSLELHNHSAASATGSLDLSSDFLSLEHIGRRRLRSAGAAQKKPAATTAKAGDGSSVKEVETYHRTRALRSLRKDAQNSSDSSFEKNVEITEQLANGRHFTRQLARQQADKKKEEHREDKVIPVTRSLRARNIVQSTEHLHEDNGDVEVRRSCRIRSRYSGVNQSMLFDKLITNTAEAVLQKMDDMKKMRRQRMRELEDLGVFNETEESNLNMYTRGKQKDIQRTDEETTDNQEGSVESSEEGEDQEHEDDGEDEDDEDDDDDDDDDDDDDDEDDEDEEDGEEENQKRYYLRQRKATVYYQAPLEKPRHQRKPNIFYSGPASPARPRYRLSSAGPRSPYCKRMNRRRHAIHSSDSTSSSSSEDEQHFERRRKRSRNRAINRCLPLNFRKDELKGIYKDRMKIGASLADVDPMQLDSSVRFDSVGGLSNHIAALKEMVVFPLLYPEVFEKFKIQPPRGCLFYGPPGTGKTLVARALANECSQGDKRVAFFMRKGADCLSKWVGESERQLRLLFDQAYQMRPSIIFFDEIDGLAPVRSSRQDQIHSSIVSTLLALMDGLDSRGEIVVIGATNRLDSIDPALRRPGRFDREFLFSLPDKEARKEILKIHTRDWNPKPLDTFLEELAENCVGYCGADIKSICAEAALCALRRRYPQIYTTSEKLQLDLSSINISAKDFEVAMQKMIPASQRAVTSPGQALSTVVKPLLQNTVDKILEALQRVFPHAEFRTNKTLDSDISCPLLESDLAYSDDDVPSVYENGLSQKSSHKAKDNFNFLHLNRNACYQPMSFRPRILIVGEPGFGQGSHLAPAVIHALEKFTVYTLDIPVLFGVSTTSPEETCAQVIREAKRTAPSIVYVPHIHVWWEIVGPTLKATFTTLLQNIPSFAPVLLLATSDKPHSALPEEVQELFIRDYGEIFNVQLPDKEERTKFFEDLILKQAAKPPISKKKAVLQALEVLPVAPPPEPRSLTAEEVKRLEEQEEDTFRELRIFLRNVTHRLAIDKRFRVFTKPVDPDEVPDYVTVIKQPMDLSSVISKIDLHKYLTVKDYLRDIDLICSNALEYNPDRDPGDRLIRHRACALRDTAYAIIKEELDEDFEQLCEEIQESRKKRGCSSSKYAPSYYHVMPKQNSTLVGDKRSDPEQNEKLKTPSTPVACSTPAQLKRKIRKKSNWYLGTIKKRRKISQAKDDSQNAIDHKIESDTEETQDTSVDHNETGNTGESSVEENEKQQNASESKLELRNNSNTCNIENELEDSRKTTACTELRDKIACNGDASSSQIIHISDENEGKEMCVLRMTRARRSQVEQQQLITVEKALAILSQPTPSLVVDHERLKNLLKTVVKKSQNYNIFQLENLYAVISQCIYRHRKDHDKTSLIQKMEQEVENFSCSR
Put plainly: Inhibition of GST-ATAD2 BD (951 to 1132 residues) (unknown origin) expressed in Escherichia coli BL21 (DE3) and biotinylated tetra-acetylated histone H4 peptides as substrate incubated for 30 mins by TR-FRET assay.

Data set [3] concerns the target T1, ATPase family AAA domain-containing protein 2. Put plainly: Inhibition of GST-ATAD2 BD (951 to 1132 residues) (unknown origin) expressed in Escherichia coli BL21 (DE3) and biotinylated tetra-acetylated histone H4 peptides as substrate by TR-FRET artifact assay.
In data set [4] the target is T2, Bromodomain-containing protein 4 (Homo sapiens, UniProt O60885). Kind of data set: Displacement of Alexafluor 647-JQ1 from GST-BRD4 BD1 BD2 (44 to 460 residues) (unknown origin) incubated for 60 mins by fluorescence polarization assay.
Data set [5] concerns the target T1, ATPase family AAA domain-containing protein 2. Put plainly: Displacement of Halo-tagged Histone H3.3 from Nanoluc-ATAD2A BD (962 to 1119 residues) (unknown origin) transfected in human HCT116 cells incubated for 18 hrs by NanoBRET assay. It counts as cell-based, HCT-116.
The target in data set [6] is T2, Bromodomain-containing protein 4. Put plainly: Displacement of Halo-tagged Histone H3.3 from Nanoluc-BRD4 BD1/BD2 (44 to 460 residues) (unknown origin) transfected in human HCT116 cells incubated for 18 hrs by NanoBRET assay. It counts as cell-based, HCT-116.
For data set [7], the species on record is Homo sapiens. Put plainly: Selectivity ratio of IC50 for Inhibition of […] GST-ATAD2 BD (981 to 1108 residues) (unknown origin) expressed in Escherichia coli BL21 (DE3) to IC50 for Halo-tagged Histone H3.3 from Nanoluc-ATAD2 BD ([…] residues) (unknown origin) transfected in human HCT116 cells.
In data set [8] the target is T1, ATPase family AAA domain-containing protein 2. Kind of data set: Displacement of Halo-tagged Histone H3.3 from Nanoluc-ATAD2 BD (962 to 1119 residues) (unknown origin) transfected in human HCT116 cells incubated for 18 hrs in presence of efflux inhibitor reversan by NanoBRET assay. It counts as cell-based, HCT-116.
Data set [9] has the same target. Put plainly: Displacement of Halo-tagged Histone H3.3 from Nanoluc-ATAD2 BD (962 to 1119 residues) (unknown origin) transfected in human HCT116 cells incubated for 18 hrs in presence of efflux inhibitor verapamil by NanoBRET assay. It counts as cell-based, HCT-116.
Data set [10] shares this target. Put plainly: Displacement of Halo-tagged Histone H3.3 from Nanoluc-ATAD2 BD (962 to 1119 residues) (unknown origin) transfected in human HCT116 cells incubated for 18 hrs in presence of efflux inhibitor elacridar by NanoBRET assay. It counts as cell-based, HCT-116.
Data set [11] shares this target. Put plainly: Inhibition of GST-ATAD2 BD (981 to 1108 residues) (unknown origin) expressed in Escherichia coli BL21 (DE3) and biotinylated tetra-acetylated histone H4 peptides as substrate incubated for 30 mins by TR-FRET assay.
For data set [12], the system named is MDA-MB-231. Kind of data set: Antiproliferative activity against human MDA-MB-231 cells assessed as inhibition of proliferation after 72 hrs. It counts as functional.

Consider `CO[C@H]1CNC[C@@H](OCC2CCC(F)(F)CC2)[C@@H]1Nc1ncc(-c2cncc(C)c2)c2cc(C)c(=O)[nH]c12`, for which the logD in [1] came out at 2.7.

In the case of `COc1cc(C(=O)N2[C@H]3Cc4ccccc4[C@@H]2CNC3=O)cc(OC)c1O`, the IC50 is 21.2 µM in [2], more than 25.1 µM in data set [3] and more than 31.6 µM in data set [4]. In data set [1], this compound yielded a logD of 0.9.

On to `COc1cc(C(=O)N2C3Cc4ccccc4C2CNC3=O)cc(OC)c1O` (stereo unspecified), for which the IC50 in data set [2] was 20.2 µM; in data set [3], more than 25.1 µM; in data set [4] it was more than 31.6 µM. The same compound yielded a logD in data set [1] of 0.9.

For the compound `COc1cc(C(=O)N2[C@H]3Cc4ccccc4[C@@H]2CNC3=O)cc2c(C)n[nH]c12`, the IC50 in data set [2] is 4.88 µM; in data set [3], more than 251 µM; in [4], more than 31.6 µM. In data set [1], this compound yielded a logD of 2.

Take `C[C@H]1NC(=O)[C@@H]2Cc3ccccc3[C@H]1N2C(=O)c1cn(C)c(=O)c2[nH]c3ccccc3c12`: the results for the IC50 in [2], in [3] and in data set [4] were 0.21 µM, more than 25.1 µM and 31.6 µM, respectively. In addition, the logD in data set [1] stood at 1.9.

Take `Cn1cc(C(=O)N2[C@H]3Cc4ccccc4[C@@H]2CNC3=O)c2cc[nH]c2c1=O`: the IC50 in data set [2] is 1.48 µM; in data set [3], more than 25.1 µM; in data set [4] it was 15.8 µM. In data set [1], the logD was found to be 0.7.

With `CNc1cc(C(=O)N2[C@H]3Cc4ccccc4[C@@H]2CNC3=O)cn(C)c1=O`, the IC50 in [2] was 11.8 µM; in [3], more than 25.1 µM. Also, the logD in [1] turned out to be 0.5.

`Cc1nnc2c(NC3CCN(C)CC3)nc(C(=O)N3[C@H]4Cc5ccccc5[C@@H]3CNC4=O)cn12`: the IC50 in [2] is more than 20 µM. In addition, the logD in data set [1] was -0.3.

As to `Cc1nnc2c(NCCCN3CCCC3)cc(C(=O)N3[C@H]4Cc5ccccc5[C@@H]3CNC4=O)nn12`, the IC50 was 0.041 µM in data set [2], more than 25.1 µM in data set [3] and more than 31.6 µM in data set [4]. Moreover, in data set [1], the logD is -0.3.

For the compound `Cc1nnc2c(NCCCN3CCCC3)cc(C(=O)N3[C@@H]4c5ccccc5C[C@H]3C(=O)N[C@@H]4C(C)C)nn12`, the IC50 in data set [2] is 0.014 µM; in data set [3] it was more than 25.1 µM; in [4], 25.1 µM; in [5], 2 µM; in [6], 25.1 µM. The compound also displayed a logD in data set [1] of 0.5. Further, the Ratio IC50 in data set [7] was 126.

On to `Cc1nnc2c(N)cc(C(=O)N3[C@H]4Cc5ccccc5[C@@H]3CNC4=O)cn12`, for which the IC50 in [2] was 6.08 µM; in [3], more than 25.1 µM; in data set [4], more than 31.6 µM. In data set [1], the logD is 0.1.

As for `C[C@H]1NC(=O)[C@@H]2Cc3ccccc3[C@H]1N2C(=O)c1cn(C)c(=O)c2[nH]c3ccc(OC(F)(F)F)cc3c12`, the IC50 in data set [2] was 0.078 µM; in data set [3], more than 25.1 µM; in data set [4], more than 31.6 µM; in data set [5] it was 1.26 µM; in data set [8], 0.794 µM; in data set [9] it was 0.501 µM. In addition, the IC50 is 0.794 µM in [10] and 126 µM in data set [6]. The same compound yielded a logD in data set [1] of 3.4. Further, in data set [7], the Ratio IC50 came out at 16.

On to `CN1C[C@H]2c3ccccc3C[C@@H](C1=O)N2C(=O)c1cn(C)c(=O)c2[nH]ccc12`, for which the concentration for half-maximal inhibition (IC50) in [2] was 3.56 µM; in [3] it was more than 25.1 µM; in data set [4], 7.94 µM. In addition, the logD in data set [1] was determined as 0.9.

For the compound `CC1=C(C#N)c2nc(N)c(C#N)c(C)c2/C1=C\c1ccc(-c2cc(C(=O)O)ccc2Cl)o1`, the IC50 in data set [11] is 3.16 µM. Also, the GI50 in data set [12] was 1 µM.

As to `CC(C)[C@H]1NC(=O)[C@@H]2Cc3ccccc3[C@H]1N2C(=O)c1cn(C)c(=O)c2[nH]c3ccccc3c12`, the IC50 in [2] was 0.44 µM; in data set [3], more than 25.1 µM; in data set [4], more than 31.6 µM. Moreover, the logD in data set [1] was found to be 2.6.

Take `Cc1nnc2c(NC3CCN(C)CC3)cc(C(=O)N3[C@H]4Cc5ccccc5[C@@H]3CNC4=O)cn12`: the IC50 in [2] is 0.37 µM; in [3], more than 25.1 µM; in data set [4], more than 31.6 µM. In data set [1], this compound showed a logD of -0.5.

On to `Cn1cc(C(=O)N2[C@H]3Cc4ccccc4[C@@H]2CNC3=O)c2c([nH]c3ccccc32)c1=O`, for which the IC50 was 0.42 µM in data set [2], more than 25.1 µM in [3] and 7.94 µM in [4]. Also, the logD in data set [1] amounted to 2.

With `Cc1nnc2c(NC3CCN(CC(C)(F)F)CC3)cc(C(=O)N3[C@@H]4c5ccccc5C[C@H]3C(=O)N[C@@H]4C(C)C)nn12`, the IC50 in data set [2] was 0.022 µM; in [3] it was more than 25.1 µM; in [4], more than 31.6 µM; in data set [5], 0.501 µM; in [8], 0.501 µM; in [9], 0.501 µM. Besides, the IC50 in data set [10] is 0.501 µM; in data set [6], 50.1 µM. In data set [1], the logD came out at 3. The Ratio IC50 in [7] came to 25.

`Cn1cc(C(=O)N2[C@H]3Cc4ccccc4[C@@H]2CNC3=O)cc(N)c1=O`: the IC50 in data set [2] is 34.3 µM; in data set [3] it was more than 25.1 µM; in data set [4], more than 31.6 µM. The same compound came in with a logD in [1] of 0.

On to `Cc1cc(C(=O)N2[C@H]3Cc4ccccc4[C@@H]2CNC3=O)c[nH]c1=O`, for which the values for the IC50 in data set [2], in data set [3] and in [4] were 26.3 µM, more than 25.1 µM and more than 31.6 µM, respectively. The logD in data set [1] was found to be 0.3.

Consider `Cc1nnc2c(N)cc(C(=O)N3[C@H]4Cc5ccccc5[C@@H]3CNC4=O)nn12`, for which the IC50 in data set [2] was 0.28 µM; in [3] it was more than 25.1 µM; in data set [4] it was 25.1 µM. Also, the logD in data set [1] was 0.8.

Regarding `Cc1nnc2c(NC3CCN(C)CC3)cc(C(=O)N3[C@H]4Cc5ccccc5[C@@H]3CNC4=O)nn12`, the IC50 was 0.0316 µM in data set [11]; 0.3 µM in data set [2]; more than 25.1 µM in [3]; more than 31.6 µM in data set [4]; 2.51 µM in [5]; 31.6 µM in data set [6]. Moreover, the logD in data set [1] came to 0.2. For the same compound, in [7], the Ratio IC50 came out at 79.

`Cc1nnc2c(NCCCN3CCC(F)(F)CC3)cc(C(=O)N3[C@@H]4c5ccccc5C[C@H]3C(=O)N[C@@H]4C(C)C)nn12`: the IC50 in data set [2] was 0.02 µM; in data set [3], more than 25.1 µM; in data set [4] it was more than 31.6 µM; in data set [5], 1.26 µM; in data set [6] it was 31.6 µM. The compound further gave a logD in [1] of 3. Further, the Ratio IC50 in data set [7] came to 63.
